Source: patent US20190290694A1, “STABLY ENGINEREED PROTEASOME INHIBITOR RESISTANT IMMUNE CELLS FOR IMMUNOTHERAPY” (CELLECTIS, priority 2016, published 2019)

Experiments:
[1] = system: GECKO-transduced primary T-cells; assay: Puromycine resistance test of mock- and GECKO-transduced primary T-cells (viability by flow cytometry); assay type: cell-based, human; parameters: dose or concentration left out as unconfirmed; conditions: GECKO-transduced versus mock T-cells, 3 days, simultaneous activation/transduction, FIG. 5
Description: Peripheral blood mononuclear cells (PBMC) were obtained from healthy volunteer donors and T-lymphocytes were purified using the EasySep human T-cell enrichment kit (Stemcell Technologies). By contrast with the GECKO protocol described by Shalem et al., primary T-cells were activated and immediately transduced with the viral particles. The T-cells were first mixed with dynabeads (25 uL/10^6 T-cells) in Xvivo-15 media and then plated on 12 well plates coated by 30 ug/mL retronectin per well (iml of retronectin per well incubated 1 hour at 37° C. followed by a washing steps using 1 ml of PBS 2% FBS) in a total volume of 400 μL. The mixture was supplemented by either 200 μL of GECKO lentiviral particles or 200 μL of Xvivo-15 media and incubated 2H at 37° C. and 5% CO2. The mixture was then supplemented by 600 μL of Xvivo-15 media, 10% AB serum and 40 ng/mL IL2 and incubated overnight at 37° C. with 5% CO2. Cells were then washed with 1.5 ml of Xvivo-15 media and resuspended in Xvivo-15 media, 5% AB serum, 20 ng/mL IL-2 in 6 wells plate at 10^6 cells/mL.
3 days post transduction, cells were recovered and used to perform a puromycine resistance test. […] FIG. 2 illustrates the puromycine sensitivity pattern of mock- and GECKO-transduced primary T-cells determined by flow cytometry. […] Cells are then recovered, labeled using EFluor780 dye and analyzed by flow cytometry to determine their viability. […]

primary T cell = assay: Bortezomib dose response, viability of primary T cells by flow cytometry (live dead cell marker); assay type: cell-based; conditions: Homo sapiens, cultured for 48h with bortezomib, FIG. 1A, read-out: EC50 of Bortezomib (cell depletion / viability)
From the text: (§1) Peripheral blood mononuclear cells (PBMC) were obtained from healthy volunteer donors as described by Schwartz J. et al. (Guidelines on the use of therapeutic apheresis in clinical practice-evidence-based approach from the Writing Committee of the American Society for Apheresis: the sixth special issue (2013) J Clin Apher. 28(3):145-284).
(§2) To investigate whether bortezomib treatment modify the survival of primary cells, frozen PBMCs were thawed and activated using Dynabeads human T activator CD3/CD28. 3 days after their activation, 1 million cells were transduced using a CD123 CAR (specific for CD123) at a MOI of 5. Cells were then immediately diluted in X-Vivo-15 media supplemented by 20 ng/ml IL-2 and 5% human serum AB and diluted at 1×10^6 cells/ml and kept in culture at 37° C. in the presence of 5% CO2. […] At the end of the culture cell viability was assessed by flow cytometry using a live dead cell marker.

[2] = system: primary CAR T-cell (CAR anti-CD123); assay: Bortezomib dose response, viability of primary CAR T-cells (CAR anti-CD123) by flow cytometry; assay type: cell-based, human
From the text: as §1
To investigate whether bortezomib treatment modify the survival of primary cells, frozen PBMCs were thawed and activated using Dynabeads human T activator CD3/CD28. 3 days after their activation, 1 million cells were transduced using a CD123 CAR (specific for CD123) at a MOI of 5. Cells were then immediately diluted in X-Vivo-15 media supplemented by 20 ng/ml IL-2 and 5% human serum AB and diluted at 1×10^6 cells/ml and kept in culture at 37° C. in the presence of 5% CO2. 7 days later, T cells, CART cells and MOLM13 cells were cultured for 48h in the presence of bortezomib increasing doses of bortezomib ranging from 0 nM to […]. At the end of the culture cell viability was assessed by flow cytometry using a live dead cell marker.
To investigate whether overexpressing POMP, PSMB5 or mutated PSMB5 on CART cells confers resistance to bortezomib treatment, T-cells frozen PBMCs were thawed and activated using Dynabeads human T activator CD3/CD28. […] At the end of the culture cell viability was assessed by flow cytometry using a live dead cell marker.

MOLM13 cell line = assay: Bortezomib dose response, viability of MOLM13 cells by flow cytometry; assay type: cell-based; conditions: Homo sapiens, MOLM-13, cultured for 48h with bortezomib, FIG. 1C, read-out: EC50 of Bortezomib (cell depletion / viability)
Description: as §2

[3] = system: CART cells that express PSMB5; assay: Bortezomib dose response, viability of CART cells coexpressing PSMB5; assay type: cell-based, human; conditions: CART cells that express PSMB5 as compared to WT CART cells and NT cells, 48h, FIG. 4
Description: (§3) To investigate whether overexpressing POMP, PSMB5 or mutated PSMB5 on CART cells confers resistance to bortezomib treatment, T-cells frozen PBMCs were thawed and activated using Dynabeads human T activator CD3/CD28. 3 days after their activation 1 million T-cells were transduced or not using the CD123 CAR and one of the ORF at a MOI of 5 for both lentiviral particles. Cells were then immediately diluted in X-Vivo-15 media supplemented by 20 ng/ml IL-2 and 5% human serum AB and diluted at 1×10^6 cells/ml and kept in culture at 37° C. in the presence of 5% CO2. 7 days later, T cells, CART cells and MOLM13 cells were cultured for 48h in the presence of increasing doses of bortezomib ranging from 0 to 100 μM. At the end of the culture cell viability was assessed by flow cytometry using a live dead cell marker.

[4] = system: CART cells that express mutated PSMB5; assay: Bortezomib dose response, viability of CART cells coexpressing mutated PSMB5; assay type: cell-based, human; conditions: CART cells that express mutated PSMB5 as compared to WT CART cells and NT cells, 48h, FIG. 4
Description: as §3

Row | EC50 (MOLM13 cell line) [µM] | SMILES | puromycine sensitivity (viability frequency) [1] | EC50 (primary T cell) [µM] | EC50 of bortezomib, change ([2]; CART cells as compared to non-transduced cells, 48h, FIG. 4) | EC50 ([2]; Homo sapiens, T-cell, primary CART cells (CD123 CAR), cultured for 48h with bortezomib, FIG. 1B, read-out: EC50 of Bortezomib (cell depletion / viability)) [µM] | EC50 of bortezomib, change [3] | EC50 of bortezomib, change [4]
1 |  | COc1ccc(C[C@H](N)C(=O)N[C@H]2[C@@H](O)[C@H](n3cnc4c(N(C)C)ncnc43)O[C@@H]2CO)cc1 [puromycine] | more resistance |  |  |  |  | 
2 | ~0.01 | CC(C)C[C@H](NC(=O)[C@H](Cc1ccccc1)NC(=O)c1cnccn1)B(O)O [bortezomib] |  | ~0.01 | increased | ~0.01 | increased | increased
